Assay results as given in patent publication US9586961B2, “Homopiperazine derivatives as protein tyrosine kinase inhibitors and pharmaceutical use thereof” (LEO PHARMA A/S, priority 2010, dated 2017).

Tests used:
Format in all cases: biochemical
[1] = biological target: T1, TYK2 (Homo sapiens, UniProt P29597); test: TYK2 kinase assay (HTRF, inhibition of phosphorylation of a synthetic peptide); settings: catalytic domain aa 871-1187, GST-tag; 13 μM ATP (Km); read-out: TYK2 kinase inhibitory activity (EC50)
T1 construct: JAK1 (aa 850-1154) and TYK2 (aa 871-1187) are expressed with an N-terminally fused GST-tag; GST (N); purchased Carna Biosciences, Inc; host or cells: baculovirus expression system
T1 sequence (P29597 871-1187): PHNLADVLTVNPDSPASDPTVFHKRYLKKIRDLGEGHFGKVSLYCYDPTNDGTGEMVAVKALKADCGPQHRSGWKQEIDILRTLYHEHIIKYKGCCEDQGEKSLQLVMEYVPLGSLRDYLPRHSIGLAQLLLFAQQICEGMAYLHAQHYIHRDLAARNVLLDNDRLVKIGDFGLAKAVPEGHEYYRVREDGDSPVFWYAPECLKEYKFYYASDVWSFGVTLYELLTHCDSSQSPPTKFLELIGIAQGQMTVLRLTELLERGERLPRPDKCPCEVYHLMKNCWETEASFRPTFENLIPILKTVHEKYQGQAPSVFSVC
Method: JAK1, JAK2, JAK3 and TYK2 Kinase Assays:
Human baculovirus-expressed JAK1, 2, 3 and TYK2 were purchased from Carna Biosciences, Inc. All four purified enzymes contain only the catalytic domain. JAK1 (aa 850-1154) and TYK2 (aa 871-1187) are expressed with an N-terminally fused GST-tag, and JAK2 and JAK3 with an N-terminally fused His-tag. Inhibition of phosphorylation of a synthetic peptide was measured in an HTRF-based assay using the TK substrate-Biotin from the CisbioHTRFKinEASE TK kit. First, 2 μl of TK solution (TK substrate-biotin in kinase buffer [1× enzymatic buffer from HTRFKinEASE TK kit, 1 mM DTT]) is added to a plate containing 1 μl prediluted compound (final assay concentration DMSO: 0.75%). Then, 5 μl kinase-ATP mix (prepared in kinase buffer) is added to the wells and the plates are incubated at RT for 20-30 min. For all four kinases a concentration of ATP that corresponded to the Km for ATP was used. The final concentrations of buffers, substrate, kinase and ATP were: JAK1: 50 mMHepes buffer pH 7.0, 0.01% BSA, 10 mM MgCl2, 1 mM DTT, 7 μM ATP, 50 nMSEB, 1 μM TK Substrate-Biotin and 5 ng JAK1; JAK2: 50 mM Hepes buffer pH 7.0, 0.01% BSA, 5 mM MgCl2, 1 mM DTT, 4 μM ATP, 1 μM TK Substrate-Biotin and 0.1 ng JAK2; JAK3: 50 mMHepes buffer pH 7.0, 0.01% BSA, 5 mM MgCl2, 1 mM DTT, 2 μM ATP, 1 μM TK Substrate-Biotin and 0.3 ng JAK3; TYK2: 50 mMHepes buffer pH 7.0, 0.01% BSA, 5 mM MgCl2, 1 mM DTT, 13 μM ATP, 50 nMSEB, 1 μM TK Substrate-Biotin and 0.8 ng TYK2. Thereafter, the kinase reaction is stopped by adding 4 μl detection mix (final concentrations: 50 mM Hepes buffer pH 7.0, 0.01% BSA, 0.8 M KF, 20 mM EDTA, 42 nM Streptavidin-XL665 and 1:400 STKAbCryptate) and the plates are incubated overnight in the dark. The HTRF signal is read using an Envision plate reader.

[2] = biological target: T2, JAK3 (Homo sapiens, UniProt P52333); test: JAK3 kinase assay (HTRF, inhibition of phosphorylation of a synthetic peptide); settings: catalytic domain, His-tag; 2 μM ATP (Km); read-out: JAK3 kinase inhibitory activity (EC50)
T2 construct: All four purified enzymes contain only the catalytic domain; His (N); purchased Carna Biosciences, Inc; host or cells: baculovirus expression system
T2 sequence (P52333 822-1111 limits assumed): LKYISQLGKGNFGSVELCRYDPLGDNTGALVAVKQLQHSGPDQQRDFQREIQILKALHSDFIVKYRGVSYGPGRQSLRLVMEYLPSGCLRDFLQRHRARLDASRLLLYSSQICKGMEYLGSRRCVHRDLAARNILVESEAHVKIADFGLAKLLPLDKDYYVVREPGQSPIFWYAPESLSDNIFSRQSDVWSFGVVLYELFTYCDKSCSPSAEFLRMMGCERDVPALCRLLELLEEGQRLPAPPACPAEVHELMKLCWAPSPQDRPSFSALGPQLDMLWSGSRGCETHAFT
Method in brief: (§1)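 Baculovirus-expressed human catalytic domains (GST-JAK1, GST-TYK2, His-JAK2, His-JAK3) phosphorylated 1 μM TK substrate-biotin at ATP Km (JAK1 7 μM, JAK2 4 μM, JAK3 2 μM, TYK2 13 μM) in pH 7.0 Hepes for 20-30 min at RT, 0.75% DMSO. EDTA stop, then overnight streptavidin-XL665/cryptate-antibody detection and HTRF read.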

[3] = biological target: T3, JAK1 (Homo sapiens, UniProt P23458); test: JAK1 kinase assay (HTRF, inhibition of phosphorylation of a synthetic peptide); settings: catalytic domain aa 850-1154, GST-tag; 7 μM ATP (Km); read-out: JAK1 kinase inhibitory activity (EC50)
T3 construct: JAK1 (aa 850-1154) and TYK2 (aa 871-1187) are expressed with an N-terminally fused GST-tag; GST (N); purchased Carna Biosciences, Inc; host or cells: baculovirus expression system
T3 sequence (P23458 850-1154): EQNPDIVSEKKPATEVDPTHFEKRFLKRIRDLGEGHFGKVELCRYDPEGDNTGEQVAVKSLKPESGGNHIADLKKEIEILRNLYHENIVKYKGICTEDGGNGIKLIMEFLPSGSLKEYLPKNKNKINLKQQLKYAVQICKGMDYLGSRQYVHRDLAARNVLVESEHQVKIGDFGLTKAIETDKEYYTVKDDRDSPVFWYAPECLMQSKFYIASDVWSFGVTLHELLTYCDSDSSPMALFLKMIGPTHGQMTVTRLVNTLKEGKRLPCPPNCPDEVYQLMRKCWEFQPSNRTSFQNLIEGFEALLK
Method in brief: as §1

[4] = biological target: T4, JAK2 (Homo sapiens, UniProt O60674); test: JAK2 kinase assay (HTRF, inhibition of phosphorylation of a synthetic peptide); settings: catalytic domain, His-tag; 4 μM ATP (Km); read-out: JAK2 kinase inhibitory activity (EC50)
T4 construct: All four purified enzymes contain only the catalytic domain; His (N); purchased Carna Biosciences, Inc; host or cells: baculovirus expression system
T4 sequence (O60674 849-1124 limits assumed): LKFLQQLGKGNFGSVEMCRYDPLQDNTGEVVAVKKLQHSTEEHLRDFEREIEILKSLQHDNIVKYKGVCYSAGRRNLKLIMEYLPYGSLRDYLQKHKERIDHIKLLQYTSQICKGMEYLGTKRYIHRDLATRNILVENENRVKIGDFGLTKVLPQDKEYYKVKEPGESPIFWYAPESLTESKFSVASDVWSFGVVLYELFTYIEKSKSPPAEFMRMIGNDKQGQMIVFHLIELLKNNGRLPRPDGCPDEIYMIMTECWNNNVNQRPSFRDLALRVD
Method in brief: as §1

SMILES | EC50 [1] [nM] | EC50 [2] [nM] | EC50 [3] [nM] | EC50 [4] [nM]
O=C(c1ccon1)N1CCCN(c2ncnc3[nH]ccc23)CC12CC2 [Example 153, isoxazol-3-yl-[5-(7H-pyrrolo[2,3-d]pyrimidin-4-yl)-5,9-diazaspiro[2.6]nonan-9-yl]methanone] | 100 to 1000 | 100 to 1000 | < 100 | < 100
CCCCC(=O)Nc1nc(N2CCCNC3(CC3)C2)c2cc[nH]c2n1 [Example 295] | > 1000 | > 1000 | > 1000 | > 1000
Cc1c(S(N)(=O)=O)csc1C(=O)N1CCN(c2ncnc3[nH]ccc23)CC2(CC2)C1 [Example 25, 4-methyl-5-[5-(7H-pyrrolo[2,3-d]pyrimidin-4-yl)-5,8-diazaspiro[2.6]nonane-8-carbonyl]thiophene-3-sulfonamide] | > 1000 | 100 to 1000 | 100 to 1000 | < 100
N#Cc1ccc(CC(=O)N2CCCN(c3ncnc4[nH]ccc34)CC23CC3)cc1 [Example 59, 4-[2-oxo-2-[5-(7H-pyrrolo[2,3-d]pyrimidin-4-yl)-5,9-diazaspiro[2.6]nonan-9-yl]ethyl]benzonitrile] | > 1000 | > 1000 | 100 to 1000 | 100 to 1000
N#Cc1cccc(CC(=O)N2CCCN(c3ncnc4[nH]ccc34)CC23CC3)c1 [Example 58, 3-[2-oxo-2-[5-(7H-pyrrolo[2,3-d]pyrimidin-4-yl)-5,9-diazaspiro[2.6]nonan-9-yl]ethyl]benzonitrile] | > 1000 | > 1000 | > 1000 | > 1000
N#CCOc1cccc(C(=O)N2CCN(c3ncnc4[nH]ccc34)CC3(CC3)C2)c1 [Example 14, 2-[3-[5-(7H-pyrrolo[2,3-d]pyrimidin-4-yl)-5,8-diazaspiro[2.6]nonane-8-carbonyl]phenoxy]acetonitrile] | > 1000 | > 1000 | 100 to 1000 | 100 to 1000
N#CCOc1ccc(CC(=O)N2CCN(c3ncnc4[nH]ccc34)CC3(CC3)C2)cc1 [Example 16, 2-[4-[2-oxo-2-[5-(7H-pyrrolo[2,3-d]pyrimidin-4-yl)-5,8-diazaspiro[2.6]nonan-8-yl]ethyl]phenoxy]acetonitrile] | > 1000 | 100 to 1000 | < 100 | < 100
N#Cc1csc(C(=O)N2CCN(c3ncnc4[nH]ccc34)CC3(CC3)C2)c1 [Example 19, 5-[5-(7H-pyrrolo[2,3-d]pyrimidin-4-yl)-5,8-diazaspiro[2.6]nonane-8-carbonyl]thiophene-3-carbonitrile] | > 1000 | 100 to 1000 | 100 to 1000 | < 100
O=C(Nc1ccccc1)N1CCCN(c2ncnc3[nH]ccc23)CC12CC2 [Example 90, N-phenyl-5-(7H-pyrrolo[2,3-d]pyrimidin-4-yl)-5,9-diazaspiro[2.6]nonane-9-carboxamide] | > 1000 | 100 to 1000 | < 100 | 100 to 1000
Cc1ccc(C(=O)N2CCN(c3ncnc4[nH]ccc34)CC3(CC3)C2)cc1S(N)(=O)=O [Example 38, 2-methyl-5-[5-(7H-pyrrolo[2,3-d]pyrimidin-4-yl)-5,8-diazaspiro[2.6]nonane-8-carbonyl]benzenesulfonamide] | 100 to 1000 | 100 to 1000 | < 100 | < 100
COCCNS(=O)(=O)c1ccc(C(=O)N2CCN(c3ncnc4[nH]ccc34)CC3(CC3)C2)cc1 [Example 74, N-(2-methoxyethyl)-4-[5-(7H-pyrrolo[2,3-d]pyrimidin-4-yl)-5,8-diazaspiro[2.6]nonane-8-carbonyl]benzenesulfonamide] | > 1000 | 100 to 1000 | 100 to 1000 | 100 to 1000
NS(=O)(=O)c1ccc(CC(=O)N2CCN(c3ncnc4[nH]ccc34)CC3(CC3)C2)s1 [Example 76, 5-[2-oxo-2-[5-(7H-pyrrolo[2,3-d]pyrimidin-4-yl)-5,8-diazaspiro[2.6]nonan-8-yl]ethyl]thiophene-2-sulfonamide] | 100 to 1000 | < 100 | < 100 | < 100
Cc1[nH]c(C(=O)N2CCCN(c3ncnc4[nH]ccc34)CC23CC3)cc1C#N [Example 278, 2-methyl-5-[5-(7H-pyrrolo[2,3-d]pyrimidin-4-yl)-5,9-diazaspiro[2.6]nonane-9-carbonyl]-1H-pyrrole-3-carbonitrile] | 100 to 1000 | 100 to 1000 | < 100 | < 100
N#Cc1cccc(CC(=O)N2CCN(c3ncnc4[nH]ccc34)CC3(CC3)C2)c1 [Example 9, 3-{2-oxo-2-[8-(7H-pyrrolo[2,3-d]pyrimidin-4-yl)-5,8-diazaspiro[2.6]non-5-yl]ethyl}benzonitrile] | > 1000 | 100 to 1000 | 100 to 1000 | < 100
CCCCN1CCN(c2ncnc3[nH]ccc23)CC2(CC2)C1 [Example 279, 4-(5-butyl-5,8-diazaspiro[2.6]nonan-8-yl)-7H-pyrrolo[2,3-d]pyrimidine] | > 1000 | > 1000 | > 1000 | > 1000
CCCc1csc(C(=O)N2CCN(c3ncnc4[nH]ccc34)CC3(CC3)C2)c1 [Example 78, (4-propyl-2-thienyl)-[5-(7H-pyrrolo[2,3-d]pyrimidin-4-yl)-5,8-diazaspiro[2.6]nonan-8-yl]methanone] | > 1000 | 100 to 1000 | 100 to 1000 | 100 to 1000
N#Cc1cccc(C(=O)N2CCN(c3ncnc4[nH]ccc34)CC3(CC3)C2)c1 [Example 3, 3-[8-(7H-pyrrolo[2,3-d]pyrimidin-4-yl)-5,8-diazaspiro[2.6]nonane-5-carbonyl]benzonitrile] | > 1000 | > 1000 | 100 to 1000 | 100 to 1000
CNS(=O)(=O)c1csc(C(=O)N2CCN(c3ncnc4[nH]ccc34)CC3(CC3)C2)c1C [Example 23, N,4-dimethyl-5-[5-(7H-pyrrolo[2,3-d]pyrimidin-4-yl)-5,8-diazaspiro[2.6]nonane-8-carbonyl]thiophene-3-sulfonamide] | > 1000 | 100 to 1000 | 100 to 1000 | < 100
Cc1cc(S(N)(=O)=O)ccc1C(=O)N1CCN(c2ncnc3[nH]ccc23)CC2(CC2)C1 [Example 71, 3-methyl-4-[5-(7H-pyrrolo[2,3-d]pyrimidin-4-yl)-5,8-diazaspiro[2.6]nonane-8-carbonyl]benzenesulfonamide] | > 1000 | 100 to 1000 | 100 to 1000 | 100 to 1000
Cn1cc(S(N)(=O)=O)cc1C(=O)N1CCN(c2ncnc3[nH]ccc23)CC2(CC2)C1 [Example 36, 1-methyl-5-[5-(7H-pyrrolo[2,3-d]pyrimidin-4-yl)-5,8-diazaspiro[2.6]nonane-8-carbonyl]pyrrole-3-sulfonamide] | > 1000 | 100 to 1000 | 100 to 1000 | 100 to 1000
